Measurements as given in ChEMBL document CHEMBL1125524, “Adenosine A1 antagonists. 2. Structure-activity relationships on diuretic activities and protective effects against acute renal failure” (J Med Chem, 1992).

Assays:
Rattus norvegicus [1] = assay: Oral diuretic activity was measured after oral administration of 25 mg/kg to rats(control volume is 0.69+/-0.03); format: functional, Urine
Rattus norvegicus [2] = assay: Ratio of urinary excretion value (urinary volume) in treated rats to that in control rats, at a peroral dose of 25 mg/Kg; format: functional, Urine
Rattus norvegicus [3] = assay: Ratio of sodium ion/potassium ion concentration in treated rats to that in control rats, at a peroral dose of 3.1 mg/Kg; format: functional
Rattus norvegicus [4] = assay: Serum creatinine concentration measured after intraperitoneal administration of 1 mg/kg of compound to rats(vehicle 4.91+/-0.10); format: functional
Rattus norvegicus [5] = assay: Percent inhibition of serum creatinine by the compound given as ratio of Cr value in treated to vehicle treated ones after intraperitoneal administration of 10 mg/kg of compound to rats(vehicle 4.26+/-0.39); format: functional; conditions: ip
Rattus norvegicus [6] = assay: Percent inhibition of Urea nitrogen by the compound given as ratio of UN value in treated to vehicle treated ones after intraperitoneal administration of 1 mg/kg of compound to rats(vehicle 154.5+/-7); format: functional; conditions: ip
Rattus norvegicus [7] = assay: Ratio of urinary excretion value (Na+ concentration) in treated rats to that in control rats, at a peroral dose of 1.6 mg/Kg; format: functional, Urine
Rattus norvegicus [8] = assay: Effect on urinary excretion potassium and sodium after oral administration of 25 mg/kg to rats(potassium and sodium excretion in control rat is 0.079+/-0.007); format: functional, Urine
Rattus norvegicus [9] = assay: Urea nitrogen concentration measured after intraperitoneal administration of 1 mg/kg of compound to rats(vehicle 154.5+/-7); format: functional
Rattus norvegicus [10] = assay: Ratio of urinary excretion value (urinary volume) in treated rats to that in control rats, at a peroral dose of 3.1 mg/Kg; format: functional, Urine
Rattus norvegicus [11] = assay: Effect on urinary excretion potassium and sodium after oral administration of 1.6 mg/kg to rats(potassium and sodium excretion in control rat is 0.158+/-0.034); format: functional, Urine
Rattus norvegicus [12] = assay: Urea nitrogen concentration measured after intraperitoneal administration of 10 mg/kg of compound to rats(vehicle 146.7+/-10.1); format: functional
Rattus norvegicus [13] = assay: Serum creatinine concentration measured after intraperitoneal administration of 10 mg/kg of compound to rats(vehicle 4.26+/-0.39); format: functional
Rattus norvegicus [14] = assay: Ratio of sodium ion/potassium ion concentration in treated rats to that in control rats, at a peroral dose of 1.6 mg/Kg; format: functional
Rattus norvegicus [15] = assay: Ratio of urinary excretion value (Na+ concentration) in treated rats to that in control rats, at a peroral dose of 3.1 mg/Kg; format: functional, Urine
Adenosine receptor A1 = molecular target: T1, Adenosine receptor A1 (Cavia porcellus, UniProt P47745)
T1 sequence (P47745 whole entry): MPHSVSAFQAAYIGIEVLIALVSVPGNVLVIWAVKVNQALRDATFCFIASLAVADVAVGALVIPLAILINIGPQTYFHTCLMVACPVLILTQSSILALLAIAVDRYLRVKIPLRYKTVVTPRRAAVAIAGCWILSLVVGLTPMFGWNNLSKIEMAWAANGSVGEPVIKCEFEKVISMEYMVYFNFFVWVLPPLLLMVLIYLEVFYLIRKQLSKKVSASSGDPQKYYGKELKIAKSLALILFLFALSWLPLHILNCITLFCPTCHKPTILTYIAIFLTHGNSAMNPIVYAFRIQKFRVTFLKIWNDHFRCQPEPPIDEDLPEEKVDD
Description: Binding affinity against adenosine A1 receptor in guinea pig forebrain membranes using N6-[3H]cyclohexyladenosine as radioligand

Rattus norvegicus [16] = assay: Percent inhibition of Urea nitrogen by the compound given as ratio of UN value in treated to vehicle treated ones after intraperitoneal administration of 10 mg/kg of compound to rats(vehicle 146.7+/-10.1); format: functional; conditions: ip
Rattus norvegicus [17] = assay: Ratio of urinary excretion value (urinary volume) in treated rats to that in control rats, at a peroral dose of 1.6 mg/Kg; format: functional, Urine
Rattus norvegicus [18] = assay: Oral diuretic activity was measured after oral administration of 3.1 mg/kg to rats(control volume is 1.18+/-0.11); format: functional, Urine
Rattus norvegicus [19] = assay: Percent inhibition of serum creatinine by the compound given as ratio of Cr value in treated to vehicle treated ones after intraperitoneal administration of 1 mg/kg of compound to rats(vehicle 4.91+/-0.10); format: functional; conditions: ip
Rattus norvegicus [20] = assay: Oral diuretic activity was measured after oral administration of 1.6 mg/kg to rats(control volume is 1.12+/-0.33); format: functional, Urine
Rattus norvegicus [21] = assay: Effect on urinary excretion potassium and sodium after oral administration of 3.1 mg/kg to rats(potassium and sodium excretion in control rat is 0.227+/-0.027); format: functional, Urine
Rattus norvegicus [22] = assay: Ratio of urinary excretion value (Na+ concentration) in treated rats to that in control rats, at a peroral dose of 25 mg/Kg; format: functional, Urine
Rattus norvegicus [23] = assay: Ratio of sodium ion/potassium ion concentration in treated rats to that in control rats, at a peroral dose of 25 mg/Kg; format: functional
Rattus norvegicus [24] = assay: Percent inhibition of serum creatinine by the compound given as ratio of Cr value in treated to vehicle treated ones after intraperitoneal administration of 10 mg/kg of compound to rats(vehicle 2.74+/-0.27); format: functional; conditions: ip
Rattus norvegicus [25] = assay: Serum creatinine concentration measured after intraperitoneal administration of 10 mg/kg of compound to rats(vehicle 2.74+/-0.27); format: functional
Rattus norvegicus [26] = assay: Oral diuretic activity was measured after oral administration of 25 mg/kg to rats(control volume is 1.04+/-0.11); format: functional, Urine
Rattus norvegicus [27] = assay: Urea nitrogen concentration measured after intraperitoneal administration of 10 mg/kg of compound to rats(vehicle 97.7+/-8.7); format: functional
Rattus norvegicus [28] = assay: Effect on urinary excretion potassium and sodium after oral administration of 25 mg/kg to rats(potassium and sodium excretion in control rat is 0.095+/-0.009); format: functional, Urine
Rattus norvegicus [29] = assay: Percent inhibition of Urea nitrogen by the compound given as ratio of UN value in treated to vehicle treated ones after intraperitoneal administration of 10 mg/kg of compound to rats(vehicle 97.7+/-8.7); format: functional; conditions: ip

CCCn1c(=O)c2nc(C34CC5CC(CC(C5)C3)C4)[nH]c2n(CCC)c1=O
Urine volume (Rattus norvegicus [1]): 1.58 ml 6hr-1 100g-1
T/C (Rattus norvegicus [2]): 2.29
Na+/K+ (Rattus norvegicus [3]): 1.23
Cr (Rattus norvegicus [4]): 3.45 mg/dL
inhibition in vivo at 10 mg/kg (Rattus norvegicus [5]): 55%
inhibition in vivo at 1 mg/kg (Rattus norvegicus [6]): 25%
T/C (Rattus norvegicus [7]): 1.44
Na (Rattus norvegicus [8]): 0.226 m equiv 6hr-1 100g-1
UN (Rattus norvegicus [9]): 118.8 mg/dL
T/C (Rattus norvegicus [10]): 1.42
Na (Rattus norvegicus [11]): 0.227 m equiv 6hr-1 100g-1
UN (Rattus norvegicus [12]): 77.5 mg/dL
Cr (Rattus norvegicus [13]): 1.91 mg/dL
Na+/K+ (Rattus norvegicus [14]): 1.22
T/C (Rattus norvegicus [15]): 1.32
Ki (Adenosine receptor A1): 13 nM
inhibition in vivo at 10 mg/kg (Rattus norvegicus [16]): 47%
T/C (Rattus norvegicus [17]): 1.24
Urine volume (Rattus norvegicus [18]): 1.67 ml 6hr-1 100g-1
inhibition in vivo at 1 mg/kg (Rattus norvegicus [19]): 30%
Urine volume (Rattus norvegicus [20]): 1.39 ml 6hr-1 100g-1
Na (Rattus norvegicus [21]): 0.299 m equiv 6hr-1 100g-1
T/C (Rattus norvegicus [22]): 2.86

CCCn1c(=O)c2[nH]c(-c3ccc(OCC(=O)NCCN)cc3)nc2n(CCC)c1=O [XANTHINE AMINE CONGENER]
Na+/K+ (Rattus norvegicus [23]): 1.24
inhibition in vivo at 10 mg/kg (Rattus norvegicus [24]): 24%
T/C (Rattus norvegicus [2]): 1.05
Cr (Rattus norvegicus [25]): 2.07 mg/dL
Urine volume (Rattus norvegicus [26]): 1.05 ml 6hr-1 100g-1
UN (Rattus norvegicus [27]): 70.1 mg/dL
Na (Rattus norvegicus [28]): 0.113 m equiv 6hr-1 100g-1
inhibition in vivo at 10 mg/kg (Rattus norvegicus [29]): 28%
T/C (Rattus norvegicus [22]): 1.19
